Test results reported in patent publication US20220153746A1, “NITROGEN OXIDE-DONATING PDE-5 AND/OR PDE-6 INHIBITOR COMPOUNDS, AND USES THEREOF” (ILDONG PHARMACEUTICAL CO., LTD., priority 2020, published 2022).
Read-outs that look alike come from different tables or passages of the source.

Assay: PK Phase (Group 2): plasma concentrations and pharmacokinetics of Compound 18 and its metabolite Compound 4 after once daily ocular instillation of Compound 18 nanosuspension for 7 days
Format: in vivo, New Zealand white rabbits
Text: This example illustrates the procedures and results for the levels of Compound 18 and its metabolite Compound 4 in plasma and ocular tissues of normotensive rabbits following ocular instillation of Compound 18 once daily for 7 consecutive days.
Twenty five (25) male New Zealand white rabbits were divided into 5 groups of varying amounts of animals per group.
The Test article, Compound 18 was formulated as a 2% nanosuspension in DI water containing 0.2% PS80 (polyoxyethylenesorbitan, monooleate (Tween 80)) and 0.4% HPMC (hydroxypropylmethylcellulose) at pH 6.77. Referred to herein as “Compound 18 nanosuspension.”
The study consisted of three groups (Groups 1-3) of 19 male rabbits (NZW) that underwent once daily morning ocular installation (1 eyedrop) for 7 consecutive days (Day 0-6). Groups 4-5 each consisted of 3 male rabbits (NZW) that were not dosed.
Blood samples (1 mL) were collected from the jugular vein at the intervals set out below for each group. The samples were then inverted several times following collection and held on wet ice until centrifuged. Samples were centrifuged within 60 minutes of collection under refrigeration (set at 5° C. for 10 minutes at 2000 g. […]
Plasma and tissue samples from treated animals (Groups 1-3) were analyzed for Compound 18 and its metabolite Compound 4 concentrations by LC-MS/MS.
Pharmacokinetic analysis was conducted using WinNonlin Version 6.2.1 (Pharsight, Mountain View, Calif.), operating as a validated software system. Noncompartmental analysis was conducted using the extravascular administration model for ocular instillation dosing.
The peak plasma concentration, time to achieve peak plasma concentration, half-life, and area under the plasma concentration-time curve (Cmax, Tmax, T1/2, and AUC) were calculated from the PK phase individual animal plasma concentrations for each sampling time/dose group for Compound 18 and its metabolite Compound 4.
BA Assay: Quantitation Range 0.05 to 100 ng/mL for Compound 18, 0.15 to 100 ng/mL for Compound 4.
Plasma calibration standards (PLSTD-A) with Compound 18 concentrations ranging from 0.0500 to 100 ng/mL were prepared by spiking control rabbit plasma with appropriate calibration curve spiking solutions (SS-A). PLQC-A samples with concentrations of 0.150, 5.00, 50.0, and 80.0 ng/mL were prepared by spiking control rabbit plasma with appropriate SS-A-QC spiking solutions.
Plasma calibration standards (PLSTD-B) with Compound 4 concentrations ranging from 0.150 to 100 ng/mL were prepared by spiking control rabbit plasma with appropriate calibration curve spiking solutions (SS-B). PLQC-B samples with concentrations of 0.450, 5.00, 50.0, and 80.0 ng/mL were prepared by spiking control rabbit plasma with appropriate SS-B-QC spiking solutions. PLQC-B-Dil samples at 800 ng/mL were prepared by spiking control rabbit plasma with the SS-B-QC-Dil spiking solution at 16,000 ng/mL, and then diluted 20× with control rabbit plasma prior to extraction.
1. Thaw plasma standards, plasma QC samples, ocular tissue QC samples, incurred plasma samples and ocular tissue samples (AH/VH) (if applicable) on wet ice. Control plasma can be thawed in tepid water. Vortex before taking aliquots.
2. Pipet 50 μL of water for Reagent Blank, 50 μL of control plasma for Double Blank and Blank, 50 μL of pre-spiked plasma for Standards and QC samples, 50 μL of incurred plasma samples (if applicable) into a 96 well plate.
5. Add 200 μL of working internal standard (WIS) solution to all remaining samples.
6. Seal the plate and vortex for approximately 5 minutes. Centrifuge the plate at 3500 rpm for 10 minutes at ˜4° C.
7. Transfer ˜200 μL of each sample supernatant into the appropriate wells of a 96 well plate. Submit for LC MS/MS analysis.
A total of 25 rabbits were used for this study, including 19 treated rabbits and 6 control rabbits. […]

In the case of `CCCc1nn(C)c2c(=O)[nH]c(-c3cc(S(=O)(=O)N4CC(CCCO[N+](=O)[O-])C4)ccc3OCC)nc12` [Compound 18, 3-(1-((4-ethoxy-3-(1-methyl-7-oxo-3-propyl-6,7-dihydro-1H-pyrazolo[4,3-d]pyrimidin-5-yl)phenyl)sulfonyl)azetidin-3-yl)propyl nitrate], the “Day 7 Compound 18 Plasma Concentration” value (0.5 h, animal 207665) is reported as “BQL (BQL = Below lower limit of quantitation (0.0500 ng/mL for Compound 18)”, the “Day 1 Compound 18 Plasma Concentration” value (1 h, animal 207664) is reported as “BQL^a (BQL = Below lower limit of quantitation (0.0500 ng/mL for Compound 18)” and the “Day 1 Compound 18 Plasma Concentration” value (1 h, animal 207665) is reported as “BQL (BQL = Below lower limit of quantitation (0.0500 ng/mL for Compound 18)”. The “Day 7 Compound 18 Plasma Concentration” value (1 h, animal 207665) was “BQL (BQL = Below lower limit of quantitation (0.0500 ng/mL for Compound 18)”, the “Day 1 Compound 18 Plasma Concentration” value (2 h, animal 207664) was “BQL (BQL = Below lower limit of quantitation (0.0500 ng/mL for Compound 18)” and the “Day 1 Compound 18 Plasma Concentration” value (2 h, animal 207665) was “BQL (BQL = Below lower limit of quantitation (0.0500 ng/mL for Compound 18)”. For the same compound, the “Day 7 Compound 18 Plasma Concentration” value (2 h, animal 207665) was “BQL (BQL = Below lower limit of quantitation (0.0500 ng/mL for Compound 18)”, the “Day 1 Compound 18 Plasma Concentration” value (2 h, animal 207666) was “BQL (BQL = Below lower limit of quantitation (0.0500 ng/mL for Compound 18)” and the “Day 7 Compound 18 Plasma Concentration” value (2 h, animal 207667) was “BQL (BQL = Below lower limit of quantitation (0.0500 ng/mL for Compound 18)”. The “Day 1 Compound 18 Plasma Concentration” value (4 h, animal 207664) was “BQL (BQL = Below lower limit of quantitation (0.0500 ng/mL for Compound 18)”, the “Day 7 Compound 18 Plasma Concentration” value (4 h, animal 207664) was “BQL (BQL = Below lower limit of quantitation (0.0500 ng/mL for Compound 18)” and the “Day 1 Compound 18 Plasma Concentration” value (4 h, animal 207665) was “BQL (BQL = Below lower limit of quantitation (0.0500 ng/mL for Compound 18)”. The “Day 7 Compound 18 Plasma Concentration” value (4 h, animal 207665) was “BQL (BQL = Below lower limit of quantitation (0.0500 ng/mL for Compound 18)”, the “Day 1 Compound 18 Plasma Concentration” value (4 h, animal 207667) was “BQL (BQL = Below lower limit of quantitation (0.0500 ng/mL for Compound 18)” and the “Day 7 Compound 18 Plasma Concentration” value (4 h, animal 207667) was “BQL (BQL = Below lower limit of quantitation (0.0500 ng/mL for Compound 18)”. For the same compound, the “Day 1 Compound 18 Plasma Concentration” value (8 h, animal 207664) was “BQL (BQL = Below lower limit of quantitation (0.0500 ng/mL for Compound 18)”, the “Day 7 Compound 18 Plasma Concentration” value (8 h, animal 207664) was “BQL (BQL = Below lower limit of quantitation (0.0500 ng/mL for Compound 18)” and the “Day 1 Compound 18 Plasma Concentration” value (8 h, animal 207665) was “BQL (BQL = Below lower limit of quantitation (0.0500 ng/mL for Compound 18)”. The “Day 1 Compound 18 Plasma Concentration” value (8 h, animal 207666) was “BQL (BQL = Below lower limit of quantitation (0.0500 ng/mL for Compound 18)”, the “Day 1 Compound 18 Plasma Concentration” value (8 h, animal 207667) was “BQL (BQL = Below lower limit of quantitation (0.0500 ng/mL for Compound 18)” and the “Day 7 Compound 18 Plasma Concentration” value (8 h, animal 207667) was “BQL (BQL = Below lower limit of quantitation (0.0500 ng/mL for Compound 18)”. The “Day 1 Compound 18 Plasma Concentration” value (24 h, animal 207664) was “BQL (BQL = Below lower limit of quantitation (0.0500 ng/mL for Compound 18)”, the “Day 7 Compound 18 Plasma Concentration” value (24 h, animal 207664) was “BQL (BQL = Below lower limit of quantitation (0.0500 ng/mL for Compound 18)” and the “Day 1 Compound 18 Plasma Concentration” value (24 h, animal 207665) was “BQL (BQL = Below lower limit of quantitation (0.0500 ng/mL for Compound 18)”. For the same compound, the “Day 7 Compound 18 Plasma Concentration” value (24 h, animal 207665) was “BQL (BQL = Below lower limit of quantitation (0.0500 ng/mL for Compound 18)”, the “Day 1 Compound 18 Plasma Concentration” value (24 h, animal 207667) was “BQL (BQL = Below lower limit of quantitation (0.0500 ng/mL for Compound 18)” and the In-life observations (Groups 1-3, Compound 18 nanosuspension 1 drop/eye/day for 7 days, except animal #207664 discolored skin and rapid respiratory rate on Day 7) was “normal following dosing”. The concentration at 0.5 h (male, New Zealand white, rabbit, plasma, other: ocular instillation (eye drop), 0.821 mg/kg/day, 0.5 h, Mean of 4 animals, BQL set to 0, read-out: Day 7 Compound 18 Plasma Concentration) was 0.0811 ng/mL, the concentration at 0.5 h (male, New Zealand white, rabbit, plasma, other: ocular instillation (eye drop), 0.821 mg/kg/day, 0.5 h, animal 207664, read-out: Day 7 Compound 18 Plasma Concentration) was 0.0978 ng/mL and the concentration at 0.5 h (male, New Zealand white, rabbit, plasma, other: ocular instillation (eye drop), 0.821 mg/kg/day, 0.5 h, animal 207666, read-out: Day 7 Compound 18 Plasma Concentration) was 0.163 ng/mL. The concentration at 0.5 h (male, New Zealand white, rabbit, plasma, other: ocular instillation (eye drop), 0.821 mg/kg/day, 0.5 h, animal 207667, read-out: Day 7 Compound 18 Plasma Concentration) was 0.0634 ng/mL, the concentration at 1 h (male, New Zealand white, rabbit, plasma, other: ocular instillation (eye drop), 0.821 mg/kg/day, 1 h, Mean of 4 animals, BQL set to 0, read-out: Day 7 Compound 18 Plasma Concentration) was 0.15 ng/mL and the concentration at 1 h (male, New Zealand white, rabbit, plasma, other: ocular instillation (eye drop), 0.821 mg/kg/day, 1 h, animal 207664, read-out: Day 7 Compound 18 Plasma Concentration) was 0.306 ng/mL. For the same compound, the concentration at 1 h (male, New Zealand white, rabbit, plasma, other: ocular instillation (eye drop), 0.821 mg/kg/day, 1 h, animal 207666, read-out: Day 7 Compound 18 Plasma Concentration) was 0.131 ng/mL, the concentration at 1 h (male, New Zealand white, rabbit, plasma, other: ocular instillation (eye drop), 0.821 mg/kg/day, 1 h, animal 207667, read-out: Day 7 Compound 18 Plasma Concentration) was 0.161 ng/mL and the concentration at 2 h (male, New Zealand white, rabbit, plasma, other: ocular instillation (eye drop), 0.821 mg/kg/day, 2 h, Mean of 4 animals, BQL set to 0, read-out: Day 1 Compound 18 Plasma Concentration) was 0.0208 ng/mL. For the same compound, the concentration at 2 h (male, New Zealand white, rabbit, plasma, other: ocular instillation (eye drop), 0.821 mg/kg/day, 2 h, Mean of 4 animals, BQL set to 0, read-out: Day 7 Compound 18 Plasma Concentration) was 0.0657 ng/mL, the concentration at 2 h (male, New Zealand white, rabbit, plasma, other: ocular instillation (eye drop), 0.821 mg/kg/day, 2 h, animal 207664, read-out: Day 7 Compound 18 Plasma Concentration) was 0.188 ng/mL and the concentration at 2 h (male, New Zealand white, rabbit, plasma, other: ocular instillation (eye drop), 0.821 mg/kg/day, 2 h, animal 207666, read-out: Day 7 Compound 18 Plasma Concentration) was 0.0747 ng/mL. It also gave a concentration at 2 h (male, New Zealand white, rabbit, plasma, other: ocular instillation (eye drop), 0.821 mg/kg/day, 2 h, animal 207667, read-out: Day 1 Compound 18 Plasma Concentration) of 0.083 ng/mL, a concentration at 4 h (male, New Zealand white, rabbit, plasma, other: ocular instillation (eye drop), 0.821 mg/kg/day, 4 h, Mean of 4 animals, BQL set to 0, read-out: Day 1 Compound 18 Plasma Concentration) of 0.0164 ng/mL and a concentration at 4 h (male, New Zealand white, rabbit, plasma, other: ocular instillation (eye drop), 0.821 mg/kg/day, 4 h, Mean of 4 animals, BQL set to 0, read-out: Day 7 Compound 18 Plasma Concentration) of 0.017 ng/mL. It also gave a concentration at 4 h (male, New Zealand white, rabbit, plasma, other: ocular instillation (eye drop), 0.821 mg/kg/day, 4 h, animal 207666, read-out: Day 1 Compound 18 Plasma Concentration) of 0.0655 ng/mL, a concentration at 4 h (male, New Zealand white, rabbit, plasma, other: ocular instillation (eye drop), 0.821 mg/kg/day, 4 h, animal 207666, read-out: Day 7 Compound 18 Plasma Concentration) of 0.0678 ng/mL and a concentration at 8 h (male, New Zealand white, rabbit, plasma, other: ocular instillation (eye drop), 0.821 mg/kg/day, 8 h, Mean of 4 animals, BQL set to 0, read-out: Day 1 Compound 18 Plasma Concentration) of 0 ng/mL.
